In patent US20080193963A1, “Method of Determining the State of Activation of a Protein” (NAMBITION GMBH, priority 2005, published 2008):

Molecular target: T1, NhaA (Escherichia coli, UniProt P13738)
T1 construct: Pulling NhaA (402aa) from either the N- or C-terminus; His6 (C); made in house; host or cells: E. coli BL21(DE3)
Assay: Single-molecule force spectroscopy (SMFS) unfolding of NhaA in presence of inhibitor
Type: binding
Experimental: We used a NanoWizard AFM (JPK Instruments, Germany) with an 850 nm laser detection system. As AP absorbs light between 290 and 350 nm, we avoided double-photon excitation and photobleaching by the laser. The spring constants of the 200 μm long (di-Veeco, USA) and 80μ long (Olympus, Japan) Si3N4 AFM cantilevers used were determined using the equipartion theorem (Butt H. J., 1995; Florin, 1995). NhaA was reconstituted into E. coli polar lipid bilayers forming two-dimensional crystals (Williams et al., 1999). Membranes were immobilized on freshly cleaved mica in 200 mM KCl, 10% glycerol, 25 mM K^+-acetate, pH 4.0 for 20 min. Experiments were performed in buffer solutions containing 190 mM KCl and 10 mM NaCl at pH 7.7 (20 mM tris-HCl) and pH 4.0 (20 mM citric acid). AP concentrations of prepared solutions were determined by their optical densities at λ=305.5 using the excitation coefficient eAP=7500 M^−1·cm^−1 (Additional Ref. 151). Solutions containing AP were kept away from light and experiments were performed in a dark room. Buffer solutions were made in fresh nano-pure water (18.2MΩ·cm^−1), using p. a. purity grade reagents from Sigma/Merck. AFM topographs of immobilized membrane patches resolved the crystalline NhaA arrangements, which were selected to unfold individual proteins (Kedrov et al., 2004).
Only C-terminal unfolding events were studied as they are dominant at pH 7.7 (Additional Ref. 152). To obtain the unfolded polpeptide chain length each force peak was fifted using the worm-like-chain (Bustamante et al., 1994) model as described ([…]). Individual unfolding barriers were located by subtracting the unfolded polypeptide length fron the C-terminus. For each force peak (unfolding barrier) the probability and average forces were calculated. At every studied condition up to 150 single-molecule unfolding events were analyzed using Igor Pro (Wavemetrics Inc., USA) and home-written macros. To probe the statistical difference of data sets the data were tested against one-way ANOVA analysis.

T1 sequence (P13738 whole entry): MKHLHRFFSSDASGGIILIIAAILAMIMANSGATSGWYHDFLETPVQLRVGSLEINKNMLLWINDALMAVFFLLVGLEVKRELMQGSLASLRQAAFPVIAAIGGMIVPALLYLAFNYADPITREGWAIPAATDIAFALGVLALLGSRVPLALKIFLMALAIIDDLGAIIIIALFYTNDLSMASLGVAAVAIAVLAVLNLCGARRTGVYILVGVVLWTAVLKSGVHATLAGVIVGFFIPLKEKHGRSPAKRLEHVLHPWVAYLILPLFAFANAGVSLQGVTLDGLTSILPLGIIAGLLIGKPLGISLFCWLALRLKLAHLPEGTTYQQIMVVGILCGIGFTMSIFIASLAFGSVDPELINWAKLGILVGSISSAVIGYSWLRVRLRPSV

SMILES: NC1=Nc2cccc3cccc(c23)N1 [AP, 2-aminoperimidine]
- "stable" fraction in histograms of force at helix IX (AP binding) with increasing Na+ concentration (40 μM AP, 10 or 200 μM NaCl as printed): drastic decrease
- average strength of the interaction detected by the 125aa force peak (helix XI as printed) (40 μM AP, NhaA activated at pH 7.7, mean ±SD, n=95, without AP 75±29 pN (n=61), p<0.0001): 105±41 pN
- enhanced interaction strength of a fraction of NhaA molecules (125aa peak) after exposure to AP (pH 7.7, NhaA.AP complex population, free NhaA ≈75 pN): ≈ 140 pN
- NhaA molecules that established enhanced stability at α-helix IX (pH-locked conformation, pH 4.0, incubated with 40 μM AP): ≈ 15%
